Measurements reported in US10570431B2, “Compositions comprising a polypeptide having cellulolytic enhancing activity and a heterocyclic compound and uses thereof” (priority 2013, dated 2020).
Read-outs that look alike come from different tables or passages of the source.

What was measured:
Type in all cases: biochemical
[1] = test system: Trichoderma reesei cellulase composition; experiment: Hydrolysis of AVICEL (microcrystalline cellulose) by the T. reesei cellulase composition, with/without GH61 polypeptide or heterocyclic compound; settings: for heterocyclic compound effect(no GH61) (ratio of percent conversion with compound to without) / heterocyclic compound effect(no GH61): AVICEL; for Percent conversion of AVICEL: GH61 present, no heterocyclic compound, one experiment
[2] = test system: Trichoderma reesei cellulase composition; settings: milled unwashed PCS, compound 5 mM, no GH61
[3] = test system: Trichoderma reesei cellulase composition; settings: milled washed PCS, no GH61
[4] = compound 10 mM, cellulase 2 mg per g cellulose, especially at day 3
[5] = 1 day, 13.7±0.6% in the absence of GH61
[6] = 3 days, 28.6±0.4% in the absence of GH61
[7] = 7 days, 44±1% in the absence of GH61

O=C(CO)c1ccccc1 [2-hydroxyacetophenone]
heterocyclic compound effect(no GH61) (ratio of percent conversion with compound to without) ([1]; compound 5 mM, 1, 3 and 7 days): less than 1 | heterocyclic compound effect(no GH61) ([1]; compound 10 mM, 1 and 3 days): significantly decreased the day 3 hydrolysis | heterocyclic compound effect(no GH61) ([2]; cellulase 2 mg per g cellulose, 1, 3 and 7 days): greater than 1 | heterocyclic compound effect(no GH61) ([3]; compound 5 mM, 1, 3 and 7 days): slightly decreased

C=C(C)CO [2-methyl-2-propen-1-ol]
heterocyclic compound effect(no GH61) (ratio of percent conversion with compound to without) ([1]; compound 5 mM, 1, 3 and 7 days): decreased later stages of hydrolysis

O=CC(=O)C[C@H](O)[C@H](O)CO [3-deoxyglucosone, 3-deoxy-D-erythro-hexosulose]
heterocyclic compound effect(no GH61) (ratio of percent conversion with compound to without) ([1]; compound 5 mM, 1, 3 and 7 days): ~1

Cc1cc(O)no1 [3-hydroxy-5-methylisoxazole]
heterocyclic compound effect(no GH61) (ratio of percent conversion with compound to without) ([1]; compound 5 mM, 1, 3 and 7 days): ~1

CC1=C(O)C(=O)CO1 [4-hydroxy-5-methyl-3-furanone]
heterocyclic compound effect(no GH61) [3, 4]: < 1

O=c1cc(O)c2ccccc2o1 [4-hydroxycoumarin]
heterocyclic compound effect(no GH61) ([1]; compound 1 mM, 1, 3 and 7 days): very slightly decreased

O=Cc1ccc(CO)o1 [5-(hydroxymethyl)furfural]
heterocyclic compound effect(no GH61) ([1]; compound 1 mM, 1, 3 and 7 days): greater than 1

OC[C@H]1OC=C[C@@H](O)[C@@H]1O [D-glucal, 1,5-anhydro-2-deoxy-D-arabino-hex-1-enitol]
heterocyclic compound effect(no GH61) (ratio of percent conversion with compound to without) ([1]; compound 5 mM, 1, 3 and 7 days): less than 1

O=C1O[C@H](CO)[C@H](O)[C@H]1O [D-xylonic γ-lactone]
heterocyclic compound effect(no GH61) ([1]; compound 5 mM, day 1 or 7): ~1

O=C1OC(C(O)CO)C(=O)C1=O (stereo not drawn) [dehydroascorbic acid, [1,2-dihydroxyethyl]furan-2,3,4(5H)-trione]
heterocyclic compound effect(no GH61) (ratio of percent conversion with compound to without) ([1]; compound 5 mM, 1, 3 and 7 days): very slightly decreased | heterocyclic compound effect(no GH61) ([1]; compound 10 mM, 1 and 3 days): very slightly decreased the day 3 hydrolysis | heterocyclic compound effect(no GH61) ([2]; mid to late stages of hydrolysis): greater than 1 | heterocyclic compound effect(no GH61) ([3]; compound 5 mM, 1, 3 and 7 days): very slightly decreased | heterocyclic compound effect(no GH61) [3, 4]: < 1

O=C1O[C@H](CO)[C@@H](O)[C@H]1O [ribonic γ-lactone]
heterocyclic compound effect(no GH61) (ratio of percent conversion with compound to without) ([1]; compound 5 mM, 1, 3 and 7 days): less than 1

B1: Penicillium pinophilum GH61A polypeptide: GH61A polypeptide having cellulolytic enhancing activity (SEQ ID NO: 32), recombinantly prepared using Aspergillus oryzae HowB101 as a host (protein, listed as Penicillium pinophilum)
chain: MPSTKVAALSAVLALASTVAGHGFVQNIVIDGKSYSGYLVNQFPYESNPPAVIGWATTATDLGFVAPSEYTNADIICHKNATPGALSAPVAAGGTVELQWTTWPDSHHGPVISYLANCNGNCSTVDKTKLDFVKIDQGGLIDDTTPPGTWASDKLIAANNSWTVTIPSTIAPGNYVLRHEIIALHSAGNADGAQNYPQCINLEITGSGTAAPSGTAGEKLYTSTDPGILVNIYQSLSTYVIPGPTLWSGAANGAVATGSATAVATTATASATATPTTLVTSVAPASSTFATAVVTTVAPAVTDVVTVTDVVTVTTVITTTVL
Percent conversion of AVICEL [1, 5]: 14.1±0.4% | Percent conversion of AVICEL [1, 6]: 28.5±0.5% | Percent conversion of AVICEL [1, 7]: 46±2%

B2: Aspergillus fumigatus GH61B polypeptide: GH61 polypeptide having cellulolytic enhancing activity (SEQ ID NO: 30), recombinantly prepared using Aspergillus oryzae JaL355 as a host (protein, listed as Aspergillus fumigatus)
chain: MTLSKITSIAGLLASASLVAGHGFVSGIVADGKYYGGYLVNQYPYMSNPPDTIAWSTTATDLGFVDGTGYQSPDIICHRDAKNGKLTATVAAGSQIEFQWTTWPESHHGPLITYLAPCNGDCATVDKTTLKFVKIAAQGLIDGSNPPGVWADDEMIANNNTATVTIPASYAPGNYVLRHEIIALHSAGNLNGAQNYPQCFNIQITGGGSAQGSGTAGTSLYKNTDPGIKFDIYSDLSGGYPIPGPALFNA
Percent conversion of AVICEL [1, 5]: 13.6±0.2% | Percent conversion of AVICEL [1, 6]: 29±1% | Percent conversion of AVICEL [1, 7]: 46±2%

B3: Talaromyces stipitatus GH61A polypeptide: GH61A polypeptide having cellulolytic enhancing activity (SEQ ID NO: 164), recombinantly prepared as described in Example 3 (protein, listed as Talaromyces stipitatus)
chain: MPSTKVAALSAVLALASTVAGHGFVQNIVIDGKSYTGYLVNQYPYQSNPPAVIGWSTTATDLGFVDGSGYTNPDIICHKNAKPGQLSAPVAAGGKVELEWTTWPESHHGPVISYLANCNGDCTTVDKTKLEFVKIDQRGLIDDSNPPGTWAADQLIAANNSWTVTIPESIAPGNYVLRHEIIALHSANNATGAQNYPQCINLQITGSGTANPSGTPGEKLYTPTDPGILVNIYQSLSSYVIPGPTLWSGAAAHVVATAAGSATGVASATATPTTLVTAVSSPTGAPSVVTPEAPSVTSFAPVVTVTDVVTVTTVITTTIS
Percent conversion of AVICEL [1, 5]: 13.6±0.4% | Percent conversion of AVICEL [1, 6]: 27.9±0.2% | Percent conversion of AVICEL [1, 7]: 44.7±0.5%

B4: Trichoderma reesei GH61B polypeptide: GH61B polypeptide having cellulolytic enhancing activity (SEQ ID NO: 16), recombinantly prepared using Aspergillus oryzae JaL250 as a host (protein, listed as Trichoderma reesei)
chain: MKSCAILAALGCLAGSVLGHGQVQNFTINGQYNQGFILDYYYQKQNTGHFPNVAGWYAEDLDLGFISPDQYTTPDIVCHKNAAPGAISATAAAGSNIVFQWGPGVWPHPYGPIVTYVVECSGSCTTVNKNNLRWVKIQEAGINYNTQVWAQQDLINQGNKWTVKIPSSLRPGNYVFRHELLAAHGASSANGMQNYPQCVNIAVTGSGTKALPAGTPATQLYKPTDPGILFNPYTTITSYTIPGPALWQG
Percent conversion of AVICEL [1, 5]: 13.5±0.4% | Percent conversion of AVICEL [1, 6]: 29±2% | Percent conversion of AVICEL [1, 7]: 44±2%

B5: Thielavia terrestris GH61E polypeptide: GH61E polypeptide having cellulolytic enhancing activity (SEQ ID NO: 8), recombinantly prepared using Trichoderma reesei RutC30 as a host (protein, listed as Thielavia terrestris)
chain: MLANGAIVFLAAALGVSGHYTWPRVNDGADWQQVRKADNWQDNGYVGDVTSPQIRCFQATPSPAPSVLNTTAGSTVTYWANPDVYHPGPVQFYMARVPDGEDINSWNGDGAVWFKVYEDHPTFGAQLTWPSTGKSSFAVPIPPCIKSGYYLLRAEQIGLHVAQSVGGAQFYISCAQLSVTGGGSTEPPNKVAFPGAYSATDPGILINIYYPVPTSYQNPGPAVFSC
Percent conversion of AVICEL ([1]; 1 day, 19.5±0.2% in the absence of GH61): 20.5±0.5% | Percent conversion of AVICEL ([1]; 3 days, 27±1% in the absence of GH61): 27±1% | Percent conversion of AVICEL ([1]; 7 days, 43±1% in the absence of GH61): 43.0±0.3%
